For one assay, the target named is T1, C-RAF (Homo sapiens, UniProt P04049, Y340E/Y341E).
T1 construct: His tag (implied by nickel chromatography) (cleaved yes); StrepII tag (cleaved yes); made in house; host or cells: Sf9 insect cells (baculovirus), CRAF and h14-3-3 zeta co-expressed; MEK1 substrate from E. coli
Briefly: In vitro Raf activity determination (Alpha Screen, biotinylated kinase-dead MEK1 substrate), C-Raf. The class given is biochemical. The note with it: c-Raf approximately 4 nM; ATP 1 μM; pre-incubation 60 minutes; reaction 1 hour at room temperature. Summed up: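 Full-length C-Raf carrying Y340E/Y341E, co-expressed with 14-3-3ζ in Sf9 cells, at approximately 4 nM, with approximately 10 nM biotinylated kinase-dead MEK1 (K97R) and 1 μM ATP, pH 7.5. Compound preincubated 60 min, reaction 1 hour at room temperature. Phospho-MEK read by AlphaScreen; IC50 by non-linear regression.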

The target in the next assay is T2, b-Raf (V600E) (Homo sapiens, UniProt P15056, V600E).
T2 construct: made in house
As to the kind of experiment: In vitro Raf activity determination (Alpha Screen, biotinylated kinase-dead MEK1 substrate), B-Raf. The format is biochemical. The conditions noted are these: b-Raf (V600E) approximately 4 pM; ATP 10 μM; pre-incubation 60 minutes; reaction 3 hours at room temperature. Put shortly:
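Activated b-Raf(V600E) (~4 pM) pre-incubated 60 min with compound and biotinylated kinase-dead (K97R) MEK1 (~10 nM), then reacted 3 h at room temperature with 10 μM ATP in 50 mM Tris pH 7.5, 15 mM MgCl2, 0.01% BSA, 1 mM DTT. Phospho-MEK detected by AlphaScreen; IC50 by non-linear regression.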

T1 sequence (P04049 whole entry Y340E/Y341E): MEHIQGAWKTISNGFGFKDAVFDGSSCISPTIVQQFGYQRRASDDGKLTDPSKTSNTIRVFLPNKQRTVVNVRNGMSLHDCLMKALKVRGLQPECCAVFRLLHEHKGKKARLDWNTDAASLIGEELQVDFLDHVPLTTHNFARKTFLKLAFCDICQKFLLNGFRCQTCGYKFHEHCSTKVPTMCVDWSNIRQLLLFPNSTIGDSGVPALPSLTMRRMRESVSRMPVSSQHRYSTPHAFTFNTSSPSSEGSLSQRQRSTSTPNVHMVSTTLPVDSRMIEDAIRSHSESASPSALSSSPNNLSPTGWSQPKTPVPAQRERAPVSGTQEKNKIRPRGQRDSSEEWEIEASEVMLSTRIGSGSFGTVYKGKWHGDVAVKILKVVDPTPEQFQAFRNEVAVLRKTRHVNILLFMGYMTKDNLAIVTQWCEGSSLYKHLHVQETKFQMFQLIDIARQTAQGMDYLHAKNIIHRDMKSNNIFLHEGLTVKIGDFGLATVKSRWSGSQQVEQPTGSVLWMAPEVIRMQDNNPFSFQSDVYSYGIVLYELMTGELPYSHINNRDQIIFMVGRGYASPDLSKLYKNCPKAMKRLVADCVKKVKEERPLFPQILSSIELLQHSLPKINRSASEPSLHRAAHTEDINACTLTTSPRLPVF
T1 sequence (P63104 whole entry partner): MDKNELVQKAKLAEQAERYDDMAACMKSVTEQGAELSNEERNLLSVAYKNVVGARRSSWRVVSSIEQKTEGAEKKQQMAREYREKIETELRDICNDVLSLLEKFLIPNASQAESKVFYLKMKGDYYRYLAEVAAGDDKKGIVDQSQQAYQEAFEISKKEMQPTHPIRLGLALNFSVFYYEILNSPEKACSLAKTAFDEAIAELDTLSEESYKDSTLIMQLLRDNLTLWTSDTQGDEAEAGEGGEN
T2 sequence (P15056 whole entry V600E): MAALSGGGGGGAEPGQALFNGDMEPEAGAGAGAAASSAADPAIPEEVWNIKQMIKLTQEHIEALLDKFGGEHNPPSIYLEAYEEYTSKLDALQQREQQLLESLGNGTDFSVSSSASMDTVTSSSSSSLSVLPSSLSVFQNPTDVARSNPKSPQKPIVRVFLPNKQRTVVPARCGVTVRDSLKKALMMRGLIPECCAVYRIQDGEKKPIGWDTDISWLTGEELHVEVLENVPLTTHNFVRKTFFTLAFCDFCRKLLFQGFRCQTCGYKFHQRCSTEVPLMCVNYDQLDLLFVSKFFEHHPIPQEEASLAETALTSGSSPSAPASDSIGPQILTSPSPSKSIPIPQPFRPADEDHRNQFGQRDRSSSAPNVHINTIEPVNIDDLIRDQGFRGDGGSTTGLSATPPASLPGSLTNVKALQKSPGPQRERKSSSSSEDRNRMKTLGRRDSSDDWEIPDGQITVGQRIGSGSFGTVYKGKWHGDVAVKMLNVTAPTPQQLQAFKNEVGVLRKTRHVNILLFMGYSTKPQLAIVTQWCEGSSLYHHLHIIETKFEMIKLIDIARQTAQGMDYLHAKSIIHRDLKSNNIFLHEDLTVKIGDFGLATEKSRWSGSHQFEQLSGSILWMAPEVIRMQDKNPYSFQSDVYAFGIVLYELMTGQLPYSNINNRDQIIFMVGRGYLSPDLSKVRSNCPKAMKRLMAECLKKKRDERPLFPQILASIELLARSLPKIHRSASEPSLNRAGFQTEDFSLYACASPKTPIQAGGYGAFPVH

As for `Cc1ncc(NC(=O)c2cccc(C(F)(F)F)c2)cc1-c1cnc(N2CCOCC2)c(C#N)c1` [Example 66, N-(5′-cyano-2-methyl-6′-morpholino-[3,3′-bipyridin]-5-yl)-3-(trifluoromethyl) benzamide], the figures for the IC50 against C-RAF and at b-Raf (V600E) were 0.203 nM and 0.852 nM, respectively.
With `Cc1ccc(NC(=O)c2ccccc2)cc1-c1cncc(C#N)c1` [Example 149, N-(3-(5-cyanopyridin-3-yl)-4-methylphenyl) benzamide], the IC50 at C-RAF turned out to be 2370 nM; on b-Raf (V600E), 15100 nM.
On to `Cc1ncc(NC(=O)c2ccnc(C(F)(F)F)c2)cc1-c1cnc(NC2CCOCC2)c(C#N)c1` [Example 173, N-(5′-cyano-2-methyl-6′-((tetrahydro-2H-pyran-4-yl)amino)-[3,3′-bipyridin]-5-yl)-2-(trifluoromethyl) isonicotinamide], for which the concentration for half-maximal inhibition (IC50) against C-RAF stood at 0.478 nM; on b-Raf (V600E), 1.63 nM.
For the compound `Cc1ncc(NC(=O)c2ccnc(C(C)(C)C#N)c2)cc1-c1cnc(-c2ccc(=O)n(C)c2)c(C#N)c1` [Example 105, N-(3′-cyano-1,2″- dimethyl-6-oxo-1,6-dihydro-[3,2′:5′,3″- terpyridin]-5″-yl)-2-(2-cyanopropan-2-yl)isonicotinamide], the IC50 against C-RAF is 2.75 nM; on b-Raf (V600E), 18 nM.
As for `Cc1ncc(NC(=O)c2ccnc(C(C)(F)F)c2)cc1-c1cnc(N2CC(C)(O)C2)c(C#N)c1` [Example 183, N-(5′-cyano-6′-(3-hydroxy-3-methylazetidin-1-yl)-2-methyl-[3,3′-bipyridin]-5-yl)-2-(1,1-difluoroethyl) isonicotinamide], the IC50 came to 0.824 nM on C-RAF and 5.79 nM on b-Raf (V600E).
The matching figures for `Cc1ccc(NC(=O)c2ccnc(S(C)(=O)=O)c2)cc1-c1cnc(N(C)C)c(C#N)c1` [Example 261, N-(3-(5-cyano-6-(dimethylamino)pyridin-3-yl)-4-methylphenyl)-2-(methylsulfonyl) isonicotinamide]: 0.106 nM and 0.71 nM.
For `Cc1ccc(NC(=O)c2cccc(S(C)(=O)=O)c2)cc1-c1cnc(C2CCOCC2)c(C#N)c1` [Example 139, N-(3-(5-cyano-6-(tetrahydro-2H-pyran-4-yl)pyridin-3-yl)-4-methylphenyl)-3-(methylsulfonyl) benzamide], the IC50 at C-RAF is 0.377 nM; on b-Raf (V600E), 2.4 nM.
The matching figures for `Cc1ccc(NC(=O)c2ccnc(C(C)(C)O)c2)cc1-c1cnc(N(C)C)c(C#N)c1` [Example 256, N-(3-(5-cyano-6-(dimethylamino)pyrdin-3-yl)-4-methylphenyl)-2-(2-hydroxypropan-2-yl)isonicotinamide]: 0.353 nM and 1.52 nM.
As to `CCn1cc(C(=O)Nc2cnc(C)c(-c3cnc(N4CC(C)(O)C4)c(C#N)c3)c2)cc(C(F)(F)F)c1=O` [Example 191, N-(5′-cyano-6′-(3-hydroxy-3-methylazetidin-1-yl)-2-methyl-[3,3′-bipyridin]-5-yl)-1-ethyl-6-oxo-5-(trifluoromethyl)-1,6-dihydropyridine-3-carboxamide], the IC50 on C-RAF was determined as 5.21 nM; at b-Raf (V600E) it was 30.6 nM.
Regarding `Cc1ccc(NC(=O)c2cc(C(C)(C)C#N)ccn2)cc1-c1cnc(N2CCOCC2)c(C#N)c1` [Example 233, N-(3-(5-cyano-6-morpholinopyridin-3-yl)-4-methylphenyl)-4-(2-cyanopropan-2-yl)picolinamide], the values for the IC50 against C-RAF and on b-Raf (V600E) were 0.187 nM and 1.34 nM, respectively.
The matching figures for `COCCNc1ncc(-c2cc(NC(=O)c3ccnc(C4(C#N)CC4)c3)ccc2C)cc1C#N` [Example 177, N-(3-(5-cyano-6-((2-methoxyethyl)amino)pyridin-3-yl)-4-methylphenyl)-2-(1-cyanocyclopropyl) isonicotinamide]: 0.169 nM and 0.94 nM.
The matching figures for `Cc1ncc(NC(=O)c2ccnc(C(F)(F)F)c2)cc1-c1cnc(-c2cccnc2)c(C#N)c1` [Example 104, N-(3′-cyano-2″- methyl-[3,2′:5′,3″- terpyridin]-5″-yl)-2-(trifluoromethyl) isonicotinamide]: 0.594 nM and 3.16 nM.

By IC50 is commonly meant the concentration that inhibits the measured activity by half.

Values taken from patent publication US10392404B2, “Compounds and compositions as kinase inhibitors” (NOVARTIS AG, priority 2014, dated 2019).
